The values below come from patent US8293753B2, “Substituted 2-carboxamide cycloamino ureas” (Novartis AG, priority 2009, dated 2012).

A word on the pIC50: it is −log10 of the IC50, conventionally taken in molar units.

Assay type in all cases: biochemical
One test addresses T1, PI3Kδ (Homo sapiens, UniProt O00329).
T1 construct: p85iSH2(461-568)-GGGGGG-p110δ(2-1044)-His; His (C); made in house; host or cells: baculovirus / Tn5 insect cells
Put plainly: PI3K KinaseGlo assay, PI3Kdelta. As to conditions: for pIC50: KinaseGlo, 1 μM ATP, 10 nM enzyme, 30 mins; for PI3Kdelta (selectivity): selectivity factor: PI3Kdelta IC50 divided by PI3Kalpha IC50. (Kinase-Glo measures the ATP left after a reaction by luminescence.)

The next test has as its target T2, PI3Kα (Homo sapiens, UniProt P42336).
T2 construct: His (C); made in house; host or cells: baculovirus / Tn5 insect cells
The experiment in a line: PI3K KinaseGlo assay, PI3Kalpha. To be noted: 1 μM ATP, 10 nM enzyme, 30 mins.

In a further test the target is T3, PI3Kγ (Homo sapiens, UniProt P48736, Q459R).
T3 construct: His (C); made in house; host or cells: Tn5 insect cells; construct obtained from Roger Williams lab (MRC LMB)
T3 sequence (P48736 with tags, fused parts or gaps Q459R): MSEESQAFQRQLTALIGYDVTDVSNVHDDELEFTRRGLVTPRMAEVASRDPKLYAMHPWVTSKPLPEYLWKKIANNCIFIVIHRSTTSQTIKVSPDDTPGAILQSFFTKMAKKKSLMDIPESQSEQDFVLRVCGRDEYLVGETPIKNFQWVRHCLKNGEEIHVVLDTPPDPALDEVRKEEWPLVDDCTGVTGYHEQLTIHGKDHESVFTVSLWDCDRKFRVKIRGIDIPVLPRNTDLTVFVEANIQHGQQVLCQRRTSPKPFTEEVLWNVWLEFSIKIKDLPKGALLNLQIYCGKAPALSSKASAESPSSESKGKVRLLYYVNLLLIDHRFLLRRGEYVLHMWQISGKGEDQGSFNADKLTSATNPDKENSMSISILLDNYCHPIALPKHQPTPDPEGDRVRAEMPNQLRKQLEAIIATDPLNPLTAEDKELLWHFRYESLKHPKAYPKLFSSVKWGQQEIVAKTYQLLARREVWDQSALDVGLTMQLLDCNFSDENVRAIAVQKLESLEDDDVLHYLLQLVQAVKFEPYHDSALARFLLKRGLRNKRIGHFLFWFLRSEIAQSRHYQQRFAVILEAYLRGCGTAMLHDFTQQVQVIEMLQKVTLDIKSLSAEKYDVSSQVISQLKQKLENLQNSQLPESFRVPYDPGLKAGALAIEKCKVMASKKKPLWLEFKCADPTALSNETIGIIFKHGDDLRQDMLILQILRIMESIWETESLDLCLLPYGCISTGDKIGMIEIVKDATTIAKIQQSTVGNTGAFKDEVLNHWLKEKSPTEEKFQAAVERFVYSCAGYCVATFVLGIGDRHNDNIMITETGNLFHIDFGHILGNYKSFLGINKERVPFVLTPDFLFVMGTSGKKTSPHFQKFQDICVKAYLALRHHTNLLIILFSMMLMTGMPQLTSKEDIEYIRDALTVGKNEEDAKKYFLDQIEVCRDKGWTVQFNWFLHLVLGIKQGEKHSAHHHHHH
Put plainly: PI3K KinaseGlo assay, PI3Kgamma. As to conditions: for pIC50: KinaseGlo, 1 μM ATP, 150 nM enzyme, 90 mins; for PI3Kgamma (selectivity): selectivity factor: PI3Kgamma IC50 divided by PI3Kalpha IC50. As for the experimental part:
PI3K KinaseGlo assay: […] of compound dilutions were dispensed onto black 384-well low volume Non Binding Styrene (NBS) plates (Costar Cat. No. NBS#3676). L-a-phosphatidylinositol (PI), provided as 10 mg/ml solution in methanol, was transferred into a glass tube and dried under nitrogen beam. It was then resuspended in 3% OctylGlucoside (OG) by vortexing and stored at 4° C. The KinaseGlo Luminescent Kinase Assay (Promega, Madison/WI, USA) is a homogeneous HTS method of measuring kinase activity by quantifying the amount of ATP remaining in solution following a kinase reaction.
5 μL of a mix of PI/OG with the PI3K subtype were added (Table 1). Kinase reactions were started by addition of 5 μl of ATP-mix containing in a final volume 10 μL 10 mM TRIS-HCl pH 7.5, 3 mM MgCl2, 50 mM NaCl, 0.05% CHAPS, 1 mM DTT and 1 μM ATP, and occurred at room temperature. Reactions were stopped with 10 μl of KinaseGlo and plates were read 10 mins later in a Synergy2 reader using an integration time of 0.1 seconds per well. […] The standard was used as a reference compound and included in all assay plates in the form of 16 dilution points in duplicate.
The PI3Kα, PI3Kβ and PI3Kδ constructs are fusion of p85α iSH2 domain and the respective p110 isoforms. The p85α fragment and p110 isoform genes were generated by PCR from first strand cDNA generated by RT-PCR from commercial RNA from placenta, testis and brain as described below. The PI3Kγ construct was obtained from Roger Williams lab, MRC Laboratory of Molecular Biology, Cambridge, UK (November, 2003) and is described (Pacold, Michael E.; Suire, Sabine; Perisic, Olga; Lara-Gonzalez, Samuel; Davis, Colin T.; Walker, Edward H.; Hawkins, Phillip T.; Stephens, Len; Eccleston, John F.; Williams, Roger L. Crystal structure and functional analysis of Ras binding to its effector phosphoinositide 3-kinase gamma. Cell (2000), 103(6), 931-943).
Construct obtained from Roger Williams lab, MRC Laboratory of Molecular Biology, Cambridge, UK (November, 2003). Description of the construct in (Pacold, Michael E.; Suire, Sabine; Perisic, Olga; Lara-Gonzalez, Samuel; Davis, Colin T.; Walker, Edward H.; Hawkins, Phillip T.; Stephens, Len; Eccleston, John F.; Williams, Roger L. Crystal structure and functional analysis of Ras binding to its effector phosphoinositide 3-kinase gamma. Cell (2000), 103(6), 931-943). Constructs lacking the N-terminal 144 aa.

A further test deals with T4, PI3Kβ (Homo sapiens, UniProt P42338).
T4 construct: His (C); made in house; host or cells: baculovirus / Tn5 insect cells
T4 sequence (P42338 with tags, fused parts or gaps): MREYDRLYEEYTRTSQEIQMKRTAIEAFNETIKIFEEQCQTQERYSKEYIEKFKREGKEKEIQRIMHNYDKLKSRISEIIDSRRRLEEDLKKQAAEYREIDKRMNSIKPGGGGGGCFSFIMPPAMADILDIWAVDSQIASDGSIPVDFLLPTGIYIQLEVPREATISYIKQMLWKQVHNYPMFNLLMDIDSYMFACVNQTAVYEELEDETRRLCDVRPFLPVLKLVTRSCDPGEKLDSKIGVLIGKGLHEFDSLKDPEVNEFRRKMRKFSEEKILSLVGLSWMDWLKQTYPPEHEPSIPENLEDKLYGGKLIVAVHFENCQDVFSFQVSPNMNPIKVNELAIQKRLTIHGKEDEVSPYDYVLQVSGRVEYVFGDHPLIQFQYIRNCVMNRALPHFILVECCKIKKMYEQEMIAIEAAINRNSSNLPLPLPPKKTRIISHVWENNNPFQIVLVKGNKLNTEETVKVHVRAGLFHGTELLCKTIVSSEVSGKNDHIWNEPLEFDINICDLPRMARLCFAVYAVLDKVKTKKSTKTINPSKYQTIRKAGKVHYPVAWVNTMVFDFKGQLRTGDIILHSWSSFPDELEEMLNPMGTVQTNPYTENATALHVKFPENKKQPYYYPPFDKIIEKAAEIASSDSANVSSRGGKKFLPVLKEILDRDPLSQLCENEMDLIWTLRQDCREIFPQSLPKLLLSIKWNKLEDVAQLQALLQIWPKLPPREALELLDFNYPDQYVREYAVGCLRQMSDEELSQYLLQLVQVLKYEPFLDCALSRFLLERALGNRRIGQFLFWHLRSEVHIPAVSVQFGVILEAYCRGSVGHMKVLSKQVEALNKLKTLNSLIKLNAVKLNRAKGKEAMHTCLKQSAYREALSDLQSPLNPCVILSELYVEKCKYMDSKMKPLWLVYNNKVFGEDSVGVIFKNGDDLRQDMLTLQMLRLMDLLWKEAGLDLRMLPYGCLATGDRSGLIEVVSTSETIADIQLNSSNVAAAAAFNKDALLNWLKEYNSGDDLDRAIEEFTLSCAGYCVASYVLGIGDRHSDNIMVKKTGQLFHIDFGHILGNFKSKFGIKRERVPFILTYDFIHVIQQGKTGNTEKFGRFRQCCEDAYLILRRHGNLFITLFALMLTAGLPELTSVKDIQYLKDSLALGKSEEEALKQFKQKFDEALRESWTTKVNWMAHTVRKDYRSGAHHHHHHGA
The experiment in a line: PI3K KinaseGlo assay, PI3Kbeta. To be noted: for pIC50: KinaseGlo, 1 μM ATP, 25 nM enzyme, 30 mins; for PI3Kbeta (selectivity): selectivity factor: PI3Kbeta IC50 divided by PI3Kalpha IC50.

The structures appear in SMILES notation. pIC50: −log10 of the molar value.

T1 sequence (O00329 with tags, fused parts or gaps): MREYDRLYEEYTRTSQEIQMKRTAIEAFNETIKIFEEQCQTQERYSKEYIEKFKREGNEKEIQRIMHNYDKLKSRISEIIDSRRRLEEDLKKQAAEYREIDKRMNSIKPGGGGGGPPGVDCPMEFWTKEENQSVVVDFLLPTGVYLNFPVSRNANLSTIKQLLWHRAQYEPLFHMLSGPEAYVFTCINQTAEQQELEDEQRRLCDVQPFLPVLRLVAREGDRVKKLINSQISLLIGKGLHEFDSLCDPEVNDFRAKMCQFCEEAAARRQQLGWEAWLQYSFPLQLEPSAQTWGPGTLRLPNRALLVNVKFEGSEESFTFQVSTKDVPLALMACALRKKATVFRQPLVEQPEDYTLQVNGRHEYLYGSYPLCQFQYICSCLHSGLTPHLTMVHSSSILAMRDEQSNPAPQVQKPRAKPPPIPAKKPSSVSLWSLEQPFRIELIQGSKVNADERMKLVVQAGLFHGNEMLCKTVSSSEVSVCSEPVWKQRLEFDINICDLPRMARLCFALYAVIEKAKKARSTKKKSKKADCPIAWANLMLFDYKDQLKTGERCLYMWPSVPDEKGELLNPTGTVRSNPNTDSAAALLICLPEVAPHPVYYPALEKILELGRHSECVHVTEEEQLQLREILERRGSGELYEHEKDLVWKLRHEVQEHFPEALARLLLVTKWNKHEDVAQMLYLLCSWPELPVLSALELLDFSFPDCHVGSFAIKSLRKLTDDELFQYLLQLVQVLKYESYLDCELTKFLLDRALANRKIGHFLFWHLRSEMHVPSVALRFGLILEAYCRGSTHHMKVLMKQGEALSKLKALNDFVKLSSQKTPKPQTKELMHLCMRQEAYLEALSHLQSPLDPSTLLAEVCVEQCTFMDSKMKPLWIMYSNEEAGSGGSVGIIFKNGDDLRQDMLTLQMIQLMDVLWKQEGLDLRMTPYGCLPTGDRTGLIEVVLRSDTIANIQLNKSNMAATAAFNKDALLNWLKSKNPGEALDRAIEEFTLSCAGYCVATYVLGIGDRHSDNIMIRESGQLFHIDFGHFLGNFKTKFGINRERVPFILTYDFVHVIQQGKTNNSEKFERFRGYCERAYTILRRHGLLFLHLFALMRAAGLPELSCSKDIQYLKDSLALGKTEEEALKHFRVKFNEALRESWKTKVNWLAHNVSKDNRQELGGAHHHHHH
T2 sequence (P42336 with tags, fused parts or gaps): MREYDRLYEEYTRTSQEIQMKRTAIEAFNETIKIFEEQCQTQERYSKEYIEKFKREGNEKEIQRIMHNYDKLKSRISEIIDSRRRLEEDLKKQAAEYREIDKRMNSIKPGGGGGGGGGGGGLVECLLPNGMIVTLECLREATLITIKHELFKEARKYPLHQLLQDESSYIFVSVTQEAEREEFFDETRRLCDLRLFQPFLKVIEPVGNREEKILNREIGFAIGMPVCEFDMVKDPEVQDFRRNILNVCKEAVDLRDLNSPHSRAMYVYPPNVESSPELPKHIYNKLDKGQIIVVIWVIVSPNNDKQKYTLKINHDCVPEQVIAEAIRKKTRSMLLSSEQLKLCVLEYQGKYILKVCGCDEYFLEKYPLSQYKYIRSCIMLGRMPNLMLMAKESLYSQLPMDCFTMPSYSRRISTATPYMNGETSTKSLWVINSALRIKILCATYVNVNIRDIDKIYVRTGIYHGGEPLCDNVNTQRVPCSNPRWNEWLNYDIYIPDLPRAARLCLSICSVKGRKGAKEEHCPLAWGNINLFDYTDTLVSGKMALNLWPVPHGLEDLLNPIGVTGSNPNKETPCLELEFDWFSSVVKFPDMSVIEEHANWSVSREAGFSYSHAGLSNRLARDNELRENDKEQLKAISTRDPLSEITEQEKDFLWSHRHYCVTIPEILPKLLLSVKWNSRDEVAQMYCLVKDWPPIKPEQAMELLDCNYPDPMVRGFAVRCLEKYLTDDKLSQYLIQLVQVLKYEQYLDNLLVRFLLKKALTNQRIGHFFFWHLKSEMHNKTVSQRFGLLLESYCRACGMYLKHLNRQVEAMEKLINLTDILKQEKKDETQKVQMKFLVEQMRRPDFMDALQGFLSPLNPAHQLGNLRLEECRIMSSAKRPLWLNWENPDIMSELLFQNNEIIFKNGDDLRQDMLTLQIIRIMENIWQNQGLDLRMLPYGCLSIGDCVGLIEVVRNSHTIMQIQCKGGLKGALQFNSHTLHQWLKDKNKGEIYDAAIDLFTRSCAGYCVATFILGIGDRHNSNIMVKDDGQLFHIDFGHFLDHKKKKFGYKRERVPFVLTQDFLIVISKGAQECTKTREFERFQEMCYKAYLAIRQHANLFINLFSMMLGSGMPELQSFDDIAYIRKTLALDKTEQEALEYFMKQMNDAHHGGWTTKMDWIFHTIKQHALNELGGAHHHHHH

Consider `[2H]C([2H])([2H])C(c1nccc(-c2sc(NC(=O)N3CC[C@@H](C)[C@H]3C(N)=O)nc2C)n1)(C([2H])([2H])[2H])C([2H])([2H])[2H]` [Example 12, (2S,3R)-3-Methylpyrrolidine-1,2-dicarboxylic acid 2-amide 1-{[5-(2-d9-tert-butyl-pyrimidin-4-yl)-4-methyl-thiazol-2-yl]-amide}], for which the pIC50 was 7.48 at PI3Kδ, 8.35 against PI3Kα, 7.12 on PI3Kγ and 5.80 on PI3Kβ. Moreover, the “PI3Kdelta (selectivity)” value on PI3Kδ is recorded as “(7)”. On PI3Kγ, the “PI3Kgamma (selectivity)” value is given as “(16)”. The “PI3Kbeta (selectivity)” value on PI3Kβ was “(353)”.

For `[2H]C([2H])([2H])C([2H])([2H])N(c1cncc(-c2sc(NC(=O)N3CC[C@@H](C)[C@H]3C(N)=O)nc2C)n1)C([2H])([2H])C([2H])([2H])[2H]` [Example 13, (2S,3R)-3-Methyl-pyrrolidine-1,2-dicarboxylic acid 2-amide 1-{[5-(6-d10-diethylamino-pyrazin-2-yl)-4-methyl-thiazol-2-yl]-amide}], on PI3Kδ, the pIC50 was 7.31 and the “PI3Kdelta (selectivity)” value is given as “(12)”. Also, the pIC50 against PI3Kα was 8.40. Further, on PI3Kγ, the pIC50 is 6.38 and the “PI3Kgamma (selectivity)” value is recorded as “(104)”. Besides, at PI3Kβ, the pIC50 is 6.03 and the “PI3Kbeta (selectivity)” value is “(234)”.
